{"source": "patent US7417069B2", "about": "“Halogenated triptolide derivatives as immunomodulators and anticancer agents” (priority 2003, dated 2008)", "key": {"[1]": {"tested_on": "Jurkat human T lymphoma cell line", "assay": "Annexin V apoptosis assay", "format": "cell-based", "settings": "induction of apoptosis in Jurkat cells, 24 hours, relative to triptolide (FIGS. 3A-B)", "procedure": "Test samples were diluted to 1 mM in complete tissue culture medium (RPMI 1640 medium plus 5% heat-inactivated fetal calf serum, 1% HEPES, 1% pen/strep, 1% glutamine). Aliquots were placed in microculture plates and serial dilutions were prepared so that the final concentration would encompass the range of 2 to 6,000 nM with half-log increments. Cells from an exponentially expanding culture of the Jurkat human T lymphoma cell line (#TIB-152 obtained from American Type Culture Collection, Manassas, Va.) were harvested, washed once by centrifugation, re-suspended in complete tissue culture medium, and further diluted to a concentration of 1×10^6 cells/ml. A volume of 100 μl of the cells (1×10^5 cells) was added to wells containing 100 μl of the diluted compounds, and the plates were incubated at 37° C. in a 5% CO2 incubator.\nAfter 24 hours, the plates were centrifuged to pellet the cells, and the cells were washed twice with 2% heat-inactivated fetal calf serum in PBS. […] The contents of the wells were individually transferred into test tubes, and apoptosis was analyzed using a FACSCalibur flow cytometer (BD Immunocytometry Systems, San Jose, Calif.). Cells positive for Annexin V binding were considered to be apoptotic, and the data were calculated as percent apoptotic cells. […]"}, "[2]": {"tested_on": "IL-2 production in Jurkat cells", "assay": "IL-2 production assay (immunosuppression assay)", "format": "cell-based, human", "settings": "for fold less potent than triptolide in the immunosuppression assay: inhibition of IL-2 production in Jurkat cells, relative to triptolide (FIGS. 4A-B)", "procedure": "Test samples were diluted to 1 mM in complete tissue culture medium. Aliquots were placed in microculture plates that had been coated with anti-CD3 antibody (used to stimulate the production of IL-2 by Jurkat cells), and serial dilutions were prepared so that the final concentration would encompass the range of 0.001 to 10,000 nM in log increments. Cells from an exponentially expanding culture of Jurkat human T cell line (#TIB-152 obtained from American Type Culture Collection, Manassas, Va.) were harvested, washed once by centrifugation, re-suspended in complete tissue culture medium, and diluted to a concentration of 2×10^6 cells/ml. A volume of 50 μl of Jurkat cells (1×10^5 cells) was added to wells containing 100 μl of the diluted compounds, 50 μl of PMA (10 ng/ml) was added to each well, and the plates were incubated at 37° C. in a 5% CO2 incubator. After 24 hours, the plates were centrifuged to pellet the cells, 150 μl of supernatant was removed from each well, and the samples were stored at −20° C. The stored supernatants were analyzed for human IL-2 concentration using the Luminex 100 (Luminex Corporation, Austin, Tex.), Luminex microspheres coupled with anti-IL-2 capture antibody, and fluorochrome-coupled anti-IL-2 detection antibody. The data were expressed as pg/ml of IL-2.\nThe data were plotted as the concentration of compound versus IL-2 concentration. The results for PG763 (14-deoxy-14α-fluorotdptolide), compared with PG490 (triptolide) and a solvent control, are given in FIG. 2. Comparative data for other 14-substituted triptolides, 14α-hydroxytriptolide (also referred to as epitriptolide; designated PG524) and 14β-(methylthio)methyltriptolide (designated PG691), compared with PG490 (triptolide), are given in FIGS. 4A-B."}, "[3]": {"tested_on": "human T cell lymphoma (Jurkat) cells", "assay": "Cytotoxicity (MTT) assay", "format": "cell-based", "settings": "24 h, in comparison with triptolide (FIG. 1)", "procedure": "Test compounds were dissolved in DMSO at a concentration of 20 mM. Further dilutions were done in RPMI 1640 medium (GIBCO, Rockville, Md.) supplemented with 10% Fetal Calf Serum (HyClone Laboratories, Logan, Utah).\nCytotoxicity of the compounds was determined in a standard MTT assay using Cell Proliferation Kit I (#1 465 007, Roche Diagnostics, Mannheim, Germany). Briefly, human T cell lymphoma (Jurkat) cells (4×10^5 per well) were cultured for 24 h, in 96-well tissue culture plates, in the presence of serial three-fold dilutions of test compounds or medium containing the same concentration of DMSO as in the test samples at each dilution point. The cultures were then supplemented with 10 μl/well MTT reagent for 4h and then with 0.1 ml/well solubilizing reagent for an additional 16 h. Optical density at 570 nm (OD570) was measured on a ThermoScan™ microplate reader (Molecular Devices, Menlo Park, Calif.). The data is presented as OD570 values versus concentration of the compounds. The results for PG763 (14-deoxy-14α-fluorotriptolide), compared with PG490 (triptolide) and a medium control, are given in FIG. 1."}}, "note": "“Also recorded” adds a separate entry of the source.", "data": [{"compound": "CSCOC1C2(C(C)C)OC2C2OC23C2(C)CCC4=C(COC4=O)C2CC2OC213", "note": "(stereo not drawn) [14β-(methylthio)methyl triptolide, 14-β-(methylthio)methyl triptolide]", "values": [{"measurement": "fold less potent than triptolide in the apoptosis assay", "setting": "[1]", "result": "~40", "unit": "fold"}, {"measurement": "fold less potent than triptolide in the immunosuppression assay", "setting": "[2]", "result": "approximately 60 fold"}]}, {"compound": "CC(C)[C@]12O[C@H]1[C@@H]1O[C@]13[C@]1(O[C@H]1C[C@H]1C4=C(CC[C@@]13C)C(=O)OC4)[C@H]2O", "note": "[epitriptolide, 14-α-hydroxytriptolide]", "values": [{"measurement": "fold less potent than triptolide in the apoptosis assay", "setting": "[1]", "result": "~25", "unit": "fold"}, {"measurement": "fold less potent than triptolide in the immunosuppression assay", "setting": "[2]", "result": "approximately 30 fold"}]}, {"compound": "CC(C)[C@]12O[C@H]1[C@@H]1O[C@]13[C@]1(O[C@H]1C[C@H]1C4=C(CC[C@@]13C)C(=O)OC4)[C@H]2F", "note": "[PG763, 14-deoxy-14α-fluorotriptolide]", "values": [{"measurement": "cytotoxicity in Jurkat cells", "setting": "[3]", "result": "nearly equivalent to that of triptolide; also recorded: in a dose-dependent manner, at concentrations comparable to those in similar assays using triptolide"}, {"measurement": "inhibition of IL-2 production in Jurkat cells", "setting": "[2]; anti-CD3 and PMA stimulated, 24 hours, in comparison with triptolide (FIG. 2)", "result": "nearly equivalent to that of triptolide; also recorded: in a dose-dependent manner, at concentrations comparable to those in similar assay using triptolide"}]}]}
